In paper PMC6251916, “CKD-506, a novel HDAC6-selective inhibitor, improves renal outcomes and survival in a mouse model of systemic lupus erythematosus” (Scientific Reports, 2018):

What was measured:
[1] = system: NZB/W F1 female mice; experiment: Murine SLE model: cytokine levels in kidney extracts; assay type: in vivo, mouse; details: at autopsy, mean ± SD
Experimental: The kidneys were weighed and then transferred into dPBS (Welgene) supplemented with anti-protease Complete TM cocktail (Boehringer) using 12.5 μl of dPBS per milligram of wet weight tissue. Samples were homogenized twice using an Automill TK-AM5 freeze-crushing cell homogenizer (W 280 mm × D 390 mm × H 290 mm, Tokken Inc., Chiba, Japan) at 1,400 rpm for 90 seconds and then centrifuged at 16,000 × g for 15 min at 4 °C. The supernatants were collected and total protein concentrations were determined in the kidney extracts using a bicinchoninic acid (BCA) protein assay kit™ (Pierce). Total protein concentrations of the kidney extracts were adjusted to 2 mg/dl and used for the analysis of IFN-γ, IL-10, IL-15, IL-17, IL-1β, IL-4, IL-6, IP-10, MCP-1, CCL4, RANTES, TNF-α and sCD40L with Milliplex® MAP Kits (Millipore).

[2] = system: NZB/W F1 female mice; experiment: Murine SLE model: serum chemistry and necropsy; details: for ALP / ALT / AST / Albumin / CPK / Ca / Total bilirubin / Total protein: serum at autopsy, mean ± SD
Experimental: Control mice received 150 μL of vehicle (Ethanol: Kolliphor® EL: saline = 1:1:8) and were subjected to the same schedule. Survival rate and incidence of severe proteinuria (percent individual mice with urine protein ≥300 mg/dL) were calculated. Survival had been monitored until 42 weeks of age.

[3] = system: acetylation of α tubulin; experiment: Analysis of protein acetylation in human PBMC (western blot); assay type: cell-based
Experimental: (§1) Human peripheral blood mononuclear cells (PBMC) (IRB No. CKD-IRB-012) were seeded (1.0 × 10^6 cells/well) and cultured for 24 hr on 12-well plate before treatment of CKD-506 or LBH-589. The chemicals were treated for 4 hr. After harvesting cells, total protein extracts were prepared. The protein extracts were resolved in pre-made SDS-PAGE (NuPAGE® Bis-Tris Precast Gels, Invitrogen). Proteins were transferred onto polyvinylidene difluoride (PVDF) membrane and probed with the following antibodies; anti-acetyl α tubulin (1:5000, #5335, Cell Signaling Technology), α tubulin (1:2000, #2144, Cell Signaling Technology), anti-acetyl histone H4(1:5000, #8647, Cell Signaling Technology), anti-histone H4(1:1000, #2935S, Cell Signaling Technology), and anti-beta-actin (1:5000, #A5441, Sigma). The horseradish peroxidase-conjugated anti-rabbit IgG (1:5000, #7074S, Cell Signaling Technology) and anti-mouse IgG (1:5000, #7076 S, Cell Signaling Technology) were used as secondary antibodies. Acetylated proteins were visualized by chemiluminescence (RPN2235, GE healthcare) and detected by the Gel documentation system (ChemiDoc™, BioRad).

[4] = system: acetylation of histone H4; experiment: as above; assay type: cell-based; details: 4 hr
Experimental: as §1

[5] = group D: CKD-506 10 mg/kg/day, n = 10
[6] = group E: CKD-506 30 mg/kg/day, n = 14

CKD-506
Kidney extract CCL2 [1, 5]: 61.30 ± 70.39 pg/mL | Kidney extract CCL4 [1, 5]: 12.77 ± 23.90 pg/mL | Kidney extract IFN-γ [1, 5]: 17.46 ± 15.04 pg/mL | Kidney extract IL-1β [1, 5]: 2.09 ± 2.68 pg/mL | Kidney extract IL-4 [1, 5]: 0.01 ± 0.02 pg/mL | Kidney extract IL-6 [1, 5]: 3.99 ± 2.72 pg/mL | Kidney extract IL-10 [1, 5]: 9.43 ± 4.36 pg/mL | Kidney extract IL-15 [1, 5]: 34.25 ± 21.24 pg/mL | Kidney extract IP-10 [1, 5]: 98.47 ± 44.61 pg/mL | Kidney extract RANTES [1, 5]: 31.17 ± 24.93 pg/mL | Kidney extract TNF-α [1, 5]: Not detected | Kidney extract CCL2 [1, 6]: 21.90 ± 17.10 pg/mL | Kidney extract CCL4 [1, 6]: 1.70 ± 4.61 pg/mL | Kidney extract IFN-γ [1, 6]: 13.12 ± 4.85 pg/mL | Kidney extract IL-1β [1, 6]: 1.18 ± 2.19 pg/mL | Kidney extract IL-4 [1, 6]: 0.02 ± 0.05 pg/mL | Kidney extract IL-6 [1, 6]: 1.65 ± 0.82 pg/mL | Kidney extract IL-10 [1, 6]: 9.62 ± 2.42 pg/mL | Kidney extract IL-15 [1, 6]: 42.42 ± 16.89 pg/mL | Kidney extract IP-10 [1, 6]: 63.40 ± 21.06 pg/mL | Kidney extract RANTES [1, 6]: 9.30 ± 7.86 pg/mL | Kidney extract TNF-α [1, 6]: Not detected | Kidney extract CCL2 ([1]; group F: 50 mg/kg/day, n = 14): 3.15 ± 6.10 pg/mL | Kidney extract CCL4 ([1]; group F: 50 mg/kg/day, n = 14): Not detected* | Kidney extract IFN-γ ([1]; group F: 50 mg/kg/day, n = 14): 6.77 ± 4.06 pg/mL | Kidney extract IL-1β ([1]; group F: 50 mg/kg/day, n = 14): 0.26 ± 0.60 pg/mL | Kidney extract IL-4 ([1]; group F: 50 mg/kg/day, n = 14): Not detected* | Kidney extract IL-6 ([1]; group F: 50 mg/kg/day, n = 14): 0.43 ± 0.45 pg/mL | Kidney extract IL-10 ([1]; group F: 50 mg/kg/day, n = 14): 7.60 ± 2.08 pg/mL | Kidney extract IL-15 ([1]; group F: 50 mg/kg/day, n = 14): 32.82 ± 11.63 pg/mL | Kidney extract IP-10 ([1]; group F: 50 mg/kg/day, n = 14): 43.90 ± 14.50 pg/mL | Kidney extract RANTES ([1]; group F: 50 mg/kg/day, n = 14): 3.80 ± 2.17 pg/mL | Kidney extract TNF-α ([1]; group F: 50 mg/kg/day, n = 14): Not detected | appearance of the spleen, kidneys, liver, lungs, or heart (gross or microscopic examination at necropsy) ([2]; end of experiment): did not result in significant changes | serum ALT relative to reference range ([2]; group CKD50, significantly higher than the other groups): within the reference range | ALP ([2]; group D: CKD-506 10 mg/kg/day): 187.44 ± 62.24 U/l | ALT ([2]; group D: CKD-506 10 mg/kg/day): 18.10 ± 5.43 U/l | AST ([2]; group D: CKD-506 10 mg/kg/day): 44.20 ± 10.09 U/l | Albumin ([2]; group D: CKD-506 10 mg/kg/day): 1.91 ± 0.43 g/dL | CPK ([2]; group D: CKD-506 10 mg/kg/day): 86.70 ± 56.89 U/l | Ca ([2]; group D: CKD-506 10 mg/kg/day): 10.08 ± 1.26 mg/dL | Total bilirubin ([2]; group D: CKD-506 10 mg/kg/day): 0.22 ± 0.09 mg/dL | Total protein ([2]; group D: CKD-506 10 mg/kg/day): 4.74 ± 0.63 g/dL | ALP ([2]; group E: CKD-506 30 mg/kg/day): 155.92 ± 19.94 U/l | ALT ([2]; group E: CKD-506 30 mg/kg/day): 20.79 ± 2.91 U/l | AST ([2]; group E: CKD-506 30 mg/kg/day): 55.21 ± 19.34 U/l | Albumin ([2]; group E: CKD-506 30 mg/kg/day): 2.19 ± 0.43 g/dL | CPK ([2]; group E: CKD-506 30 mg/kg/day): 84.71 ± 31.40 U/l | Ca ([2]; group E: CKD-506 30 mg/kg/day): 9.65 ± 0.69 mg/dL | Total bilirubin ([2]; group E: CKD-506 30 mg/kg/day): 0.26 ± 0.12 mg/dL | Total protein ([2]; group E: CKD-506 30 mg/kg/day): 5.21 ± 0.71 g/dL | ALP ([2]; group F: 50 mg/kg/day): 153.08 ± 17.25 U/l | ALT ([2]; group F: 50 mg/kg/day): 29.07 ± 12.21 U/l | AST ([2]; group F: 50 mg/kg/day): 59.00 ± 56.14 U/l | Albumin ([2]; group F: 50 mg/kg/day): 2.26 ± 0.35 g/dL | CPK ([2]; group F: 50 mg/kg/day): 125.86 ± 177.18 U/l | Ca ([2]; group F: 50 mg/kg/day): 9.43 ± 0.59 mg/dL | Total bilirubin ([2]; group F: 50 mg/kg/day): 0.28 ± 0.14 mg/dL | Total protein ([2]; group F: 50 mg/kg/day): 5.35 ± 0.60 g/dL | acetylation of α tubulin, % of maximum acetylation ([3]; at 100 nM, human PBMC): about 85% | IC90 ([3]; read-out: IC90 for the induction of α tubulin acetylation): ~100 nM | effect on acetylation of histone H4 [4]: without affecting
